Laboratory results from ChEMBL document CHEMBL3585245, “Synthesis and antiproliferative evaluation of 9-methoxy-6-(piperazin-1-yl)-11H-indeno[1,2-c]quinoline-11-one derivatives. Part 4” (Medchemcomm, 2014).
Calls of active or inactive are those of the source. No cut-off for these calls is given here.

How the values were obtained:
HeLa = test: Antiproliferative activity against human HeLa cells incubated for 72 hrs by MTT assay; format: functional, cell-based
SAS = test: Antiproliferative activity against human SAS cells incubated for 72 hrs by MTT assay; format: functional, cell-based
[1] = Antiproliferative activity against human SKHep cells incubated for 72 hrs by MTT assay; format: functional, cell-based
AGS = test: Antiproliferative activity against human AGS cells incubated for 72 hrs by MTT assay; format: functional, cell-based
[2] = Antiproliferative activity against human 786-O cells incubated for 72 hrs by MTT assay; format: functional, cell-based; settings: 786-0, 72 h
MDA-MB-231 = test: Antiproliferative activity against human MDA-MB-231 cells incubated for 72 hrs by MTT assay; format: functional, cell-based; settings: MDA-MB-231, 72 h
NCI-H1299 [3] = test: Antiproliferative activity against human H1299 cells incubated for 72 hrs by MTT assay; format: functional, cell-based; settings: NCI-H1299, 72 h
Detroit 551 = test: Antiproliferative activity against human Detroit 551 cells incubated for 72 hrs by MTT assay; format: functional, cell-based; settings: Detroit 551, 72 h
NCI-H1299 [4] = test: Induction of apoptosis in human H1299 cells assessed as increase in BAX cleavage at 1 to 10 uM incubated for 24 hrs by Western blotting method; format: functional, cell-based
NCI-H1299 [5] = test: Induction of apoptosis in human H1299 cells assessed as increase in caspase-3 activation at 1 to 10 uM incubated for 24 hrs by Western blotting method; format: functional, cell-based
NCI-H1299 [6] = test: Induction of apoptosis in human H1299 cells assessed as increase in caspase-7 activation at 1 to 10 uM incubated for 24 hrs by Western blotting method; format: functional, cell-based
NCI-H1299 [7] = test: Induction of apoptosis in human H1299 cells assessed as decrease in Bcl2 expression at 1 to 10 uM incubated for 24 hrs by Western blotting method; format: functional, cell-based
[8] = Reduction in HDAC6 protein expression in human H1299 cells at 1 to 10 uM incubated for 24 hrs by Western blotting method; format: functional, cell-based; settings: NCI-H1299
[9] = Reduction in SIRT1 protein expression in human H1299 cells at 1 to 10 uM incubated for 24 hrs by Western blotting method; format: functional, cell-based; settings: NCI-H1299
[10] = Reduction in FOXO3a protein expression in human H1299 cells at 1 to 10 uM incubated for 24 hrs by Western blotting method; format: functional, cell-based; settings: NCI-H1299
[11] = Reduction in p-Akt protein expression in human H1299 cells at 1 to 10 uM incubated for 24 hrs by Western blotting method; format: functional, cell-based; settings: NCI-H1299
[12] = Reduction in PTEN protein expression in human H1299 cells at 1 to 10 uM incubated for 24 hrs by Western blotting method; format: functional, cell-based; settings: NCI-H1299
NCI-H1299 [13] = test: Induction of apoptosis in human H1299 cells assessed as early apoptotic cells level at 1 uM annexin V and propidium iodide double staining based flow cytometry (reference value: 0.74 +/- 0.31%); format: functional
NCI-H1299 [14] = test: Induction of apoptosis in human H1299 cells assessed as late apoptotic cells level at 1 uM annexin V and propidium iodide double staining based flow cytometry (reference value: 2.62 +/- 0.75%); format: functional
NCI-H1299 [15] = test: Induction of apoptosis in human H1299 cells assessed as early apoptotic cells level at 5 uM annexin V and propidium iodide double staining based flow cytometry (reference value: 0.74 +/- 0.31%); format: functional
NCI-H1299 [16] = test: Induction of apoptosis in human H1299 cells assessed as late apoptotic cells level at 5 uM annexin V and propidium iodide double staining based flow cytometry (reference value: 2.62 +/- 0.75%); format: functional
NCI-H1299 [17] = test: Induction of apoptosis in human H1299 cells assessed as early apoptotic cells level at 10 uM annexin V and propidium iodide double staining based flow cytometry (reference value: 0.74 +/- 0.31%); format: functional
NCI-H1299 [18] = test: Induction of apoptosis in human H1299 cells assessed as late apoptotic cells level at 10 uM annexin V and propidium iodide double staining based flow cytometry (reference value: 2.62 +/- 0.75%); format: functional
Nucleic Acid = test: Induction of DNA intercalation of negative supercoiled Escherichia coli pBR322 DNA at 10 uM incubated for 12 hrs by ethidium bromide staining based DNA mobility assay; format: nucleic-acid assay
NCI-H1299 [19] = test: Induction of DNA damage in human H1299 cells at 5 uM incubated for 24 hrs by single cell electrophoresis-based alkaline comet assay; format: functional
NCI-H1299 [20] = test: Induction of apoptosis in human H1299 cells assessed as increase in PARP cleavage at 1 to 10 uM incubated for 24 hrs by Western blotting method; format: functional, cell-based
NCI-H1299 [21] = test: Induction of apoptosis in human H1299 cells assessed as early apoptotic cells level at 1 uM annexin V and propidium iodide double staining based flow cytometry (reference value: 0.4 +/- 0.17%); format: functional
NCI-H1299 [22] = test: Induction of apoptosis in human H1299 cells assessed as late apoptotic cells level at 1 uM annexin V and propidium iodide double staining based flow cytometry (reference value: 1.9 +/- 0.12%); format: functional
NCI-H1299 [23] = test: Induction of apoptosis in human H1299 cells assessed as early apoptotic cells level at 5 uM annexin V and propidium iodide double staining based flow cytometry (reference value: 0.4 +/- 0.17%); format: functional
NCI-H1299 [24] = test: Induction of apoptosis in human H1299 cells assessed as late apoptotic cells level at 5 uM annexin V and propidium iodide double staining based flow cytometry (reference value: 1.9 +/- 0.12%); format: functional
NCI-H1299 [25] = test: Induction of apoptosis in human H1299 cells assessed as early apoptotic cells level at 10 uM annexin V and propidium iodide double staining based flow cytometry (reference value: 0.4 +/- 0.17%); format: functional
NCI-H1299 [26] = test: Induction of apoptosis in human H1299 cells assessed as late apoptotic cells level at 10 uM annexin V and propidium iodide double staining based flow cytometry (reference value: 1.9 +/- 0.12%); format: functional
NCI-H1299 [27] = test: Induction of DNA damage in human H1299 cells at 10 uM incubated for 24 hrs by single cell electrophoresis-based alkaline comet assay; format: functional

IC50 (HeLa) [µM] | IC50 (AGS) [µM] | IC50 (MDA-MB-231) [µM] | IC50 (NCI-H1299 [3]) [µM] | SMILES | IC50 (SAS) [µM] | IC50 [1] [µM] | IC50 [2] [µM] | IC50 (Detroit 551) [µM] | other results
11.7 | 8.11 | 6.61 | 5.79 | COc1ccc2c(c1)C(=O)c1c-2c(N2CCN(C(=O)CCN(C)C)CC2)nc2ccccc12 | 17 | 16.6 | 11.5 | 2.84 | 
3.13 | 3.67 | 6.08 | 5.67 | COc1ccc2c(c1)C(=O)c1c-2c(N2CCN(C(=O)CCNCCO)CC2)nc2ccccc12 | 9.1 | 4.51 | 2.03 | 8.38 | 
11.8 | 8.7 | 6.15 | 6.28 | COc1ccc2c(c1)C(=O)c1c-2c(N2CCN(C(=O)CN(C)C)CC2)nc2ccccc12 | > 30 | 19.2 | 14.1 | 31.5 | 
> 30 | 3.37 | 5.45 | 5.32 | COc1ccc2c(c1)C(=O)c1c-2c(N2CCN(C(=O)CN3CCNCC3)CC2)nc2ccccc12 | 7.4 | 2.22 | 4 | 2.55 | 
4.78 | 4.94 | 7.44 | 5.65 | COc1ccc2c(c1)C(=O)c1c-2c(N2CCN(C(=O)CCNCCN(C)C)CC2)nc2ccccc12 | 8.8 | 5.08 | 7.03 | 2.53 | 
2.47 | 7.86 | 6.11 | 6.84 | COc1ccc2c(c1)C(=O)c1c-2c(N2CCN(CC(O)CN(C)C)CC2)nc2ccccc12 (stereo not drawn) | 6.9 | 2.22 | 6.8 | 2.58 | 
0.98 | 18.6 | 0.7 | 0.68 | COc1ccc2c(c1)/C(=N\OCC(O)CN(C)C)c1c-2c(N2CCN(CC(O)CN(C)C)CC2)nc2ccccc12 (stereo not drawn) | 9 | 2.46 | 13.9 | 2.05 | 
18 | 21.4 | > 30 | > 30 | COc1ccc2c(c1)C(=O)c1c-2c(N2CCN(C(=O)CN3CCOCC3)CC2)nc2ccccc12 | > 30 | 19.9 | > 30 |  | 
8.17 | 14.1 | 6.15 | 6.48 | COc1ccc2c(c1)C(=O)c1c-2c(N2CCN(C(=O)CNCCN(C)C)CC2)nc2ccccc12 | 19.5 | 16 | 9.37 | 4.59 | 
2.04 | 7.15 | 5.92 | 5.14 | CNCC(=O)N1CCN(c2nc3ccccc3c3c2-c2ccc(OC)cc2C3=O)CC1 | 7.4 | 4.83 | 6.2 | 4.84 | 
4.71 | 5.46 | 6.26 | 5.87 | COc1ccc2c(c1)C(=O)c1c-2c(N2CCN(C(=O)CCN3CCNCC3)CC2)nc2ccccc12 | 7.7 | 4.93 | 1.5 | 3.35 | 
1.9 | 8.11 | 5.89 | 5.46 | CNCCC(=O)N1CCN(c2nc3ccccc3c3c2-c2ccc(OC)cc2C3=O)CC1 | 6.9 | 9.1 | 6 | 2.92 | 
5.43 | 2.8 | 5.7 | 5.44 | COc1ccc2c(c1)C(=O)c1c-2c(N2CCN(C(=O)CCNCCCN(C)C)CC2)nc2ccccc12 | 13.5 | 8.6 | 5.9 | 6.42 | 

The remaining lines, values behind:

SMILES | IC50 (HeLa) [µM] | IC50 (AGS) [µM] | IC50 (MDA-MB-231) [µM] | IC50 (NCI-H1299 [3]) [µM] | IC50 (SAS) [µM] | IC50 [1] [µM] | IC50 [2] [µM] | IC50 (Detroit 551) [µM] | other results
COc1ccc2c(c1)C(=O)c1c-2c(N2CCNCC2)nc2ccccc12 | 15.2 | 10.1 | 23.8 | 17.1 | > 30 | 25.3 | 12.5 | 5.71 | 
COc1ccc2c(c1)/C(=N\O)c1c-2c(N2CCNCC2)nc2ccccc12 | 2.35 | 1.74 | 5.87 | 5.72 | 6.1 | 3.75 | 1.2 |  | 
COc1ccc2c(c1)/C(=N\OCC1CO1)c1c-2c(N2CCN(CC3CO3)CC2)nc2ccccc12 (stereo not drawn) | 0.54 | 8.76 | 0.79 | 1.18 | 6.2 | 0.99 | 8.8 | 7.95 | Activity (NCI-H1299 [4]): Active; Activity (NCI-H1299 [5]): Active; Activity (NCI-H1299 [6]): Active; Activity (NCI-H1299 [7]): Active; Activity [8]: Active; Activity [9]: Active; Activity [10]: Active; Activity [11]: Active; Activity [12]: Active; Activity (NCI-H1299 [13]): 1.38%; Activity (NCI-H1299 [14]): 4.5%; Activity (NCI-H1299 [15]): 2.45%; Activity (NCI-H1299 [16]): 8.25%; Activity (NCI-H1299 [17]): 1.6%; Activity (NCI-H1299 [18]): 17.9%; Activity (Nucleic Acid): Active; Activity (NCI-H1299 [19]): Active; Activity (NCI-H1299 [20]): Active
COc1ccc2c(c1)C(=O)c1c-2c(N2CCN(C(=O)CCN3CCOCC3)CC2)nc2ccccc12 | 14.3 | 12 | 21.9 | 18.7 | > 30 | 15.1 | > 30 |  | 
CNCC(O)CN1CCN(c2nc3ccccc3c3c2-c2ccc(OC)cc2C3=O)CC1 (stereo not drawn) | 4.64 | 9.58 | 6.05 | 6.89 | 7.4 | 3.44 | 6.4 | 9.4 | 
CC[C@@]1(O)C(=O)OCc2c1cc1n(c2=O)Cc2cc3ccccc3nc2-1 [CAMPTOTHECIN] | 0.18 | 23.8 | 2.11 | 3.14 | 6 | 0.22 | 0.015 | 0.99 | 
COc1ccc2c(c1)C(=O)c1c-2c(N2CCN(CC3CO3)CC2)nc2ccccc12 (stereo not drawn) | 10.7 | 21.4 | 7.65 | 7.92 | > 30 | > 30 | 19.1 |  | Activity (NCI-H1299 [21]): 1.83%; Activity (NCI-H1299 [22]): 4.51%; Activity (NCI-H1299 [23]): 1.57%; Activity (NCI-H1299 [24]): 4.98%; Activity (NCI-H1299 [25]): 3.29%; Activity (NCI-H1299 [26]): 7.57%; Activity (NCI-H1299 [27]): Active
COc1ccc2c(c1)C(=O)c1c-2c(N2CCN(C(=O)CNCCCN(C)C)CC2)nc2ccccc12 | 10.8 | 5.62 | 6 | 5.99 | > 30 | 13.1 | 9.97 | 8.89 | 
COc1ccc2c(c1)/C(=N\OCCN1CCCC1)c1c-2c(O)nc2ccccc12 |  |  |  |  |  |  |  |  | Activity (Nucleic Acid): Active
COc1ccc2c(c1)C(=O)c1c-2c(N2CCN(C(=O)CNCCO)CC2)nc2ccccc12 | 4.74 | 6.55 | 5.9 | 5.41 | 11.3 | 6.64 | 6.7 | 8.78 | 
